Here are results for twelve compounds from patent US5686458A, “Quinazoline deriviates for treating peptic ulcer” (Yuhan Corporation, priority 1992, dated 1997).

The target of assay [1] is T1, Proton Pump (H^+ /K^+ ATPase) (Oryctolagus cuniculus, UniProt P27112).
T1 construct: The microsomes thus obtained were used as an enzyme source of the in vitro enzyme reaction study of proton pump; from tissue; host or cells: rabbit stomach, mucosal scrapings, microsomes (180,000 g pellet)
Put plainly: Inhibition of Proton Pump (H+/K+ ATPase) Activity, in vitro enzyme reaction (Experiment 1). The format is biochemical, New Zealand white rabbit. The following applies: for Effect ratio: IC50 of Omeprazole / IC50 of test compound; for IC50: K+-stimulated H+/K+ ATPase activity, rabbit gastric microsomes, pH 7.2, 37° C., 15 min prereaction, 30 min reaction, read-out: IC50 of test compound, inhibition (50%) of the proton pump activity. The method, then: A New Zealand white rabbit was killed by blowing its head and the stomach was taken out. The contents of the stomach were removed and the stomach walls were washed with was saline. The inner wall of the stomach was scratched out with a slide glass and the cells thus obtained were homogenized in 0.25M sucrose buffer by means of a Teflon-glass homogenizer. The homogenous solution was centrifuged at 10,000 g for 10 minutes and the supernatant was further centrifuged at 20,000 g for 20 minutes. The supernatant thus obtained was centrifuged at an ultra-high speed of 180,000 g for 1 hour. The pellets precipitated were collected by discarding the supernatant and suspended in 50 mM Tris-HCl buffer having pH 7.2. The suspension was dialyzed twice with the same buffer(of 1,000 times volume) for 3 hours and stored into liquid nitrogen.
The above centrifugation and dialysis were carried out at 4° C. The microsomes thus obtained were used as an enzyme source of the in vitro enzyme reaction study of proton pump.
The inhibitory effects of proton pump activity by the compounds of the present invention were measured by the in vitro enzyme reaction study. The proton pump activity stimulated by Mg^++ was used as a negative comparative group, and the activity stimulated by Mg^++ and K^+ was used as a positive comparative group. The comparative compound was omeprazole.
Test tubes were divided into 4 groups: Group 1 as negative comparative group(n=3), Group 2 as positive comparative group(n=3), Group 3(n=5) to be administered with the compound of the present invention and Group 4(n=5) to be administered with the comparative compound. The inhibitory effects of proton pump activity of Groups 3 and 4 were measured by employing the compound prepared in Example 34 and omeprazole, respectively, each of which was dissolved in dimethylsulfoxide at 5 different concentrations.
To each of Groups 1, 2, 3 and 4, were added 0.1 ml of magnesium chloride(40 mM) dissolved in 50 mM Tris-HCl buffer (pH 7.2) and […] of the enzyme source prepared in Experiment 1-1. Then, 0.1 ml of potassium chloride(500 mM) and 0.1 ml of ammonium chloride(100 mM) dissolved in 50 mM Tris-HCl buffer(pH 7.2) were added to all groups except for Group 1.
0.1 ml of dimethylsulfoxide was added to each of Groups 1 and 2; and to Group 3 was added 0.01 ml of the solution in which the compound prepared in Example 34 was dissolved in dimethylsulfoxide at 5 different concentrations. To Group 4, 0.01 ml of the solution prepared by dissolving omprazole in dimethylsulfoxide at 5 different concentrations(37.6, 21.4, 12.2, 7.0 and 4.0 μM) was added. 50 mM Tris-HCl buffer was added thereto so as to make the total volume 0.4 ml.
Thereafter, the test tubes of each Group were placed at 37° C. for 15 minutes for the prereaction. 0.1 ml of ATP solution(33.3 mM), which was prepared by adding Tris-ATP 50 mM to Tris-HCl buffer having pH 7.2, was added until the reaction volume became 0.5 ml. The final concentrations of MgCl2, KCl, NH4 Cl, ATP, enzyme and Tris-HCl were 8 mM, 100 mM, 20 mM, 6.7 mM, 100μg/ml and 50 mM, respectively. After the reaction was carried out at 37° C. for 30 minutes, 25% cold trichloroacetic acid was added to terminate the enzyme reaction. The released inorganic phosphate was measured by an automatic analyzer(SBA 300, Gilford).
The difference between Group 1 and Group 2 represents the proton pump activity activated by K^+ only. The inhibition percentages of Groups 3 and 4 were calculated from Litchfield-wilcoxon equation[see J. Pharmacol. Exptl. Ther. 96, 99(1949)]. The concentrations of the test compounds which inhibit 50% of the proton pump activity are represented as IC50 in Table 1.

The subject of the next assay is gastric secretion. Put plainly: Inhibition of Gastric Secretion, pylorus-ligated rats (Experiment 2). The format is in vivo, Sprague-Dawley rats. The following applies: relative to omeprazole (equation III), 20 mg/kg intraduodenally, pylorus-ligated rats, 5 hours. The method, then:
In accordance with the method disclosed in Shay, H., et al., Gastroenterology 5, 43-61(1945), Experiment 2 was carried out.
Sprague-Dawley rats having a body weight of 170±10 g were divided into 3 groups(n=5) and deprived of food for 24 hours before the experiment with free access to water. Under ether anesthesia, the abdomen was incised, and the pylorus was ligated. As a comparative group, Group 1 was administered intraduodenally in a volume of 0.5 ml/200 g of 30% aqueous polyethylene glycol 400 solution. Groups 2 and 3 were administered intraduodenally with the compound of Example 34 and omeprazole, respectively, each of which was suspended in 30% aqueous polyethylene glycol 400 solution at a concentration of 20 mg/kg. After closing the abdominal cavity, the rats were placed for 5 hours and then killed by cervical dislocation. The stomach was extracted to obtain gastric juice.
The gastric juice was centrifuged at 1,000 g to remove precipitates. The amount and acidity of the gastric juice were measured. Relative volumes, relative acid concentrations and relative acid outputs of the test compounds were calculated from equations(I), (II) and (III) and the results are shown in Table 2.
(I) = the average amount of gastric juice of Group 1 - the
average amount of gastric juice of Group 2)/(the average
amount of gastric juice of Group 1 - the average amount
of gastric juice of Group 3)
Relative acid concentration
(II) = (the average acidity of Group 1 - the average
acidity of Group 2)/(the average acidity of Group 1 - the average
(III) = (the total amount of acid output of Group 1 - the
total amount of acid output of Group 2)/(the total amount of acid
output of Group 1 - the total amount of acid output of Group

The structures appear in SMILES notation.

T1 sequence (P27112 whole entry): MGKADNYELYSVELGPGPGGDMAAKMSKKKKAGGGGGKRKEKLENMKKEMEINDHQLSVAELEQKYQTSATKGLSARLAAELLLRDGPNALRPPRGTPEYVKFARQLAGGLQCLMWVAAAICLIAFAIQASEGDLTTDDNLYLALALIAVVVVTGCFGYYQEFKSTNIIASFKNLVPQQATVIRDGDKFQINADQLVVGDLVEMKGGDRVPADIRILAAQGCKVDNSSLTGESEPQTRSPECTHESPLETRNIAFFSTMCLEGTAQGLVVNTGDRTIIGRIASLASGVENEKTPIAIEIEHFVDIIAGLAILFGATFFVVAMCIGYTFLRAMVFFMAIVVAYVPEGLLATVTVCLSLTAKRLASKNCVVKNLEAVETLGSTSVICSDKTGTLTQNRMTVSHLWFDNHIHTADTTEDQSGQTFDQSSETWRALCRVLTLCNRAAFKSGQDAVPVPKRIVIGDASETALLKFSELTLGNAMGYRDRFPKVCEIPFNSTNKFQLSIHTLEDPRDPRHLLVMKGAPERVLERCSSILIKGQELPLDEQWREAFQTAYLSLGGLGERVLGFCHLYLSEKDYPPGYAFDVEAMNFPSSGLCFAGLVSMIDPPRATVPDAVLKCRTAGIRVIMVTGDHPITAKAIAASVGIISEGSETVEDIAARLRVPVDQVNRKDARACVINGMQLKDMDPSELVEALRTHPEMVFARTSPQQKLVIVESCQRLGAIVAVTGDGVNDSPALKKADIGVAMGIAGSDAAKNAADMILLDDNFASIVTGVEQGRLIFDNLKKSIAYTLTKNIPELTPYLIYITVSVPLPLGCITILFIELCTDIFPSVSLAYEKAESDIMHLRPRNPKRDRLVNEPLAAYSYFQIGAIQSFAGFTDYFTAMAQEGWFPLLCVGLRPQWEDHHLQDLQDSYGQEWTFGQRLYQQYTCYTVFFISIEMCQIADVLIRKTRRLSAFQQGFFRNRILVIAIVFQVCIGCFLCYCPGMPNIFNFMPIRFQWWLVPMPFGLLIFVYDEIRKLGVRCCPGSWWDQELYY
T1 sequence (P18597 whole entry partner): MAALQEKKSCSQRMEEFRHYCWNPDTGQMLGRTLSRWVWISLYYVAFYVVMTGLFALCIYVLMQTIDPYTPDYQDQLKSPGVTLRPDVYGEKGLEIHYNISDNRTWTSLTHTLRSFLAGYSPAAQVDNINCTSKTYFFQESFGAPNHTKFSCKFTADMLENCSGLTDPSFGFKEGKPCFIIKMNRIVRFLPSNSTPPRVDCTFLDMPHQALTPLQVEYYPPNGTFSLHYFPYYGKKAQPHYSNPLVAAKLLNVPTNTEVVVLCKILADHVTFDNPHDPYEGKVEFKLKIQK

Consider `Cc1cc(F)ccc1Nc1nc(N2CCc3ccccc3C2C)c2cccc(OCCO)c2n1` (stereo not drawn) [Example 37, 8-(2-Hydroxyethyloxy)-2-(4-Fluoro-2-Methylphenylamino)-4-(1-Methyl-1,2,3,4-Tetrahydroisoquinoline-2-Yl)Quinazoline], for which, in assay [1], the Effect ratio is reported as ~ 0.60 and the concentration for half-maximal inhibition (IC50) was around 12500 nM. The “Relative Acid Output” value in the assay with gastric secretion was 0.37.

Turning to `COc1cccc2c(N3CCc4ccccc4C3C)nc(N(C)c3ccc(F)cc3)nc12.Cl` (stereo not drawn) [Example 41, 8-Methoxy-2-(4-Fluoro-N-methyl-Phenylamino)-4-(1-Methyl-1,2,3,4-Tetrahydroisoquinoline-2-Yl)Quinazoline Hydrochloride], in assay [1], the Effect ratio was found to be 2.00 and the IC50 worked out at 3800 nM. Further, the “Relative Acid Output” value in the assay on gastric secretion is recorded as 0.48.

Turning to `COc1cccc2c(N3Cc4ccccc4CC3C)nc(Nc3ccc(F)cc3)nc12.Cl` (stereo not drawn) [Example 48, 2-(4-Fluorophenylamino)-8-Methoxy-4-(3-Methyl-1,2,3,4-Tetrahydroisoquinoline-2-Yl) Quinazoline Hydrochloride], in assay [1], the Effect ratio was ~ 0.25 and the concentration for half-maximal inhibition (IC50) is around 25000 nM. Besides, the “Relative Acid Output” value in the assay on gastric secretion is reported as 0.76.

Regarding `COc1cccc2c(N3CCc4ccccc4C3C)nc(Nc3ccc(F)cc3C)nc12.O=C(O)CC(O)C(=O)O` (stereo not drawn) [Example 61, 2-(4-Fluoro-2-Methylphenyl-Amino)-8-Methoxy-4-(1-Methyl-1,2,3,4-Tetrahydroisoquinoline-2-Yl)Quinazoline Malate], in assay [1], the Effect ratio is reported as 4.42 and the IC50 is 2100 nM. Moreover, the “Relative Acid Output” value with gastric secretion came out at 0.76.

In the case of `CCOc1cccc2c(N3CCc4ccccc4C3C)nc(Nc3ccc(F)cc3C)nc12.Cl` (stereo not drawn) [Example 38, 2-(4-Fluoro-2-Methylphenyl-Amino)-8-Ethoxy-4-(1-Methyl-1,2,3,4-Tetrahydroisoquinoline-2-Yl)Quinazoline Hydrochloride], in assay [1], the Effect ratio worked out at 1.67 and the 50% inhibitory concentration (IC50) was found to be 1200 nM. Moreover, the “Relative Acid Output” value with gastric secretion is given as 0.83.

Consider `Cc1cc(F)ccc1Nc1nc(N2CCc3ccccc3C2C)c2ccccc2n1.Cl` (stereo not drawn) [Example 26, 2-(4-Fluoro-2-Methylphenyl-Amino)-4-(1-Methyl-1,2,3,4-Tetrahydroisoquinoline-2-Yl) Quinazoline Hydrochloride], for which, in assay [1], the Effect ratio stood at 46.00 and the IC50 amounted to 400 nM. The “Relative Acid Output” value with gastric secretion is on record as 0.25.

With `COc1cccc2c(N3CCc4ccccc4C3C)nc(Nc3ccc(F)cc3)nc12.Cl` (stereo not drawn) [Example 33, 8-Methoxy-2-(4-Fluorophenyl-Amino)-4-(1-Methyl-1,2,3,4-Tetrahydroisoquinoline-2-Yl) Quinazoline Hydrochloride], in assay [1], the Effect ratio stood at 1.22 and the IC50 turned out to be 2300 nM. Further, the “Relative Acid Output” value in the assay on gastric secretion was found to be 0.79.

Turning to `COc1cccc2c(N3CCc4cccc(C)c4C3C)nc(Nc3ccc(F)cc3C)nc12.Cl` (stereo not drawn) [Example 53, 2-(4-Fluoro-2-Methylphenyl-Amino)-8-Methoxy-4-(1,8-dimethyl-1,2,3,4-Tetrahydroisoquinoline-2-Yl)Quinazoline Hydrochloride], in assay [1], the Effect ratio was 4.75 and the half-maximal inhibitory concentration (IC50) was 2000 nM. In addition, in the assay with gastric secretion, the “Relative Acid Output” value was determined as 0.92.

In the case of `COc1cccc2c(N3CCc4ccccc4[C@H]3C)nc(Nc3ccc(F)cc3C)nc12.Cl` [Example 35, (R)-8-Methoxy-2-(4-Fluoro-2-Methylphenylamino)-4-(1-Methyl-1,2,3,4-Tetrahydroisoquinoline-2-Yl)Quinazoline Hydrochloride], in assay [1], the Effect ratio was 2.83 and the IC50 was 1800 nM. Besides, the “Relative Acid Output” value in the assay on gastric secretion stood at 0.79.

For the compound `COc1cccc2c(N3CCc4cccc5c4C3CC5)nc(Nc3ccc(F)cc3)nc12.Cl` (stereo not drawn) [Example 58, 8-Methoxy-2-(4-Fluorophenyl-Amino)-4-(1,8-Ethano-1,2,3,4-Tetrahydroisoquinoline-2-Yl)Quinazoline Hydrochloride], in assay [1], the Effect ratio is 0.65 and the IC50 was found to be 13600 nM. The “Relative Acid Output” value in the assay on gastric secretion worked out at 0.94.

Turning to `COc1cccc2c(N3CCc4ccccc4C3C(F)(F)F)nc(Nc3ccc(F)cc3C)nc12.Cl` (stereo not drawn) [Example 42, 2-(4-Fluoro-2-Methylphenyl-Amino)-8-Methoxy-4-(1-Trifluoromethyl-1,2,3,4-Tetrahydroisoquinoline-2-Yl)Quinazoline Hydrochloride], in assay [1], the Effect ratio was below 0.18 and the IC50 was determined as 12500 nM. Also, the “Relative Acid Output” value in the assay with gastric secretion is reported as 0.42.

`COc1cccc2c(N3CC(C)c4ccccc4C3C)nc(Nc3ccc(F)cc3)nc12.Cl` (stereo not drawn) [Example 56, 2-(4-Fluorophenylamino)-8-Methoxy-4-(1,4-Dimethyl-1,2,3,4-Tetrahydroisoquinoline-2-Yl)Quinazoline Hydrochloride]: in assay [1], the Effect ratio is on record as below 0.60 and the concentration for half-maximal inhibition (IC50) is above 12500 nM. The “Relative Acid Output” value with gastric secretion amounted to 0.85.
